Results taken from US12421264B2 (INSTITUT NATIONAL DE LA RECHERCHE SCIENTIFIQUE, priority 2018, dated 2025).

Assays:
N. meningitidis = assay: Bacterial survival assay (3 h), CFU counts; assay type: cell-based, Neisseria meningitidis
Method: (§1) Bacterial Survival Assay (3 h)
(§2) To measure bacterial survival (FIGS. 2 and 4), different bacteria were exposed to various concentrations of the compounds (as indicated) in their specific growth media (see the culture conditions above) for 3 h at 37° C. To perform this assay, all strains were grown overnight in their corresponding agar media. Cell-suspension corresponding to an OD600=0.05 were subsequently prepared. In parallel, fresh stock DMSO solutions of the compounds were prepared (100×, with final concentrations being indicated in the different figures) and 1.8 μL of the corresponding solutions were added per well of 96-well plates. In each well, 178.2 μL of bacterial suspension were subsequently added. Bacteria were allowed to grow during […] at 37° C. with 5% CO2. After incubation, serial dilutions (until 10^−6) were performed and 50 μL of each diluted solution were spread on agar plates. After an overnight incubation at 37° C. with/without 5% CO2, CFU were enumerated. All these assays were performed at least in triplicates.
(§3) Therefore, the bactericidal activity was assessed for the 4 compounds harboring a BPh4^− identified from the initial screen described above (AnIII-7, AnIII-6, AnII-18, NaBPh4). N. meningitidis was treated with 50 μM of each compound and the % survival cells (compared with DMSO 1% control) was measured using serial dilutions and CFU counts. […] To verify if the bactericidal effect could be observed for the other pathogen of the Neisseria family, a clinical isolate of. N. gonorrhoeae (LNP16626 [3]) was also treated with 50 μM of the same compounds, respectively, using the same assay.
(§4) The MBC (minimum bactericidal concentration that kill >99.999%), the concentration necessary to completely abrogate bacterial survival after a 3 h exposure to NaBPh4, was next assessed.

N. sicca = assay: Bacterial survival assay (3 h), CFU counts; assay type: cell-based, Neisseria sicca; conditions: 50 μM, compared with N. meningitidis and N. gonorrhoeae
Method: as §1, §2
(§5) To verify if the toxicity of BPh4^− is specific to the Neisseria genus, the percentage of survival of several Neisseria species was assessed after treatment with 50 μM of NaBPh4^− for 3 h (FIG. 4A). […]

[1] = Toxicity of NaBPh4 in mice; assay type: in vivo, Balb/c mice; conditions: mice treated with NaBPh4 (IV or IP)
Method: (§6) The strain LNP 24198 of Neisseria meningitidis expressing the luxCDABE gene under the control of the porBp promoter was used. Three groups, with five seven-week-old Balb/c mice each, were infected with luminescent Neisseria meningitidis. For this, 200 μL of bacterial cultures at OD600nm of 0.1 (5×10^7 cells/mL) mixed with 150 μL of human transferrin (20 mg/mL) was injected in each mouse. Two hours later, one group was treated with 100 μL of NaBPh4 (20 μM) injected into the tail veins by intravenous injection (IV), and one group was treated with the same dose injected by intraperitoneal injection (IP). The remaining five were treated with 100 μL of DMSO as controls. NaBPh4 was initially prepared at 20 mM in DMSO before being diluted into PBS to reach a final concentration of 20 μM (with 0.1% DMSO). DMSO was diluted in PBS in the same manner to achieve 1:1000. To test a possible toxicity of NaBPh4, one group of 5 non-infected mice was treated with 100 μL of DMSO (IP) and two groups with 100 μL NaBPh4 (IV or IP). Luminescence was then measured, on the front and back of the mice, at different time points (0, 4, 8, 24 and 48 hours post-infection). The light signal was determined for each mouse using the ROI (Region Of Interest) tool of the IVIS Lumina Ill.
(§7) The effect of NaBPh4 administration in a murine model of N. meningitidis infection was assessed.

Staphylococcus aureus = assay: Bacterial survival assay (3 h), CFU counts; assay type: cell-based; conditions: 50 μM, compared with N. meningitidis and N. gonorrhoeae
Method: as §1, §2
(§8) To verify if the toxicity of BPh4^− is specific to the Neisseria genus, the percentage of survival of several Neisseria species was assessed after treatment with 50 μM of NaBPh4^− for 3 h (FIG. 4A). […] Other Gram-negative species such as Yersinia enterocolitica and Citrobacter rodentium (order Enterobacterales) or Moraxella catarrhalis (order Pseudomonadeles), but also Gram-positive species such as Staphylococcus aureus and Actinobacteria with M. smegmatis, were also tested.

Moraxella catarrhalis = assay: Bacterial survival assay (3 h), CFU counts; assay type: cell-based; conditions: 50 μM, compared with N. meningitidis and N. gonorrhoeae
Method: as §1, §2, §8

Yersinia enterocolitica = assay: Bacterial survival assay (3 h), CFU counts; assay type: cell-based; conditions: 50 μM, compared with N. meningitidis and N. gonorrhoeae
Method: as §1, §2, §8

Citrobacter rodentium = assay: Bacterial survival assay (3 h), CFU counts; assay type: cell-based; conditions: 50 μM, compared with N. meningitidis and N. gonorrhoeae
Method: as §1, §2, §8

M. smegmatis = assay: Bacterial survival assay (3 h), CFU counts; assay type: cell-based; conditions: 50 μM, compared with N. meningitidis and N. gonorrhoeae
Method: as §1, §2, §8

N. elongata = assay: Bacterial survival assay (3 h), CFU counts; assay type: cell-based, Neisseria elongata
Method: as §1, §2, §5

[2] = test system: N. meninigitidis (LNP24198) expressing luciferase (LuxABCDE); assay: N. meningitidis luminescent strain growth assay (16 h); assay type: cell-based, Neisseria meningitidis
Method: N. meningitidis Luminescent Strain Growth Assay (16 h)
To perform the library screening (FIG. 1) or to compare the activity of the different boron-containing salts (FIG. 3), the amount of light produced after 16 h of growth for N. meningitidis luminescent strain was measured. Contrarily to optical density (OD) readings which can be misleading due to the absorbance of dead cells, this measurement is directly correlated to the number of live cells, as the half-life of the luciferase and its substrate are limited and that the emission of light is therefore not subsisting after the death of the cells. To perform this assay, N. meninigitidis (LNP24198) expressing luciferase (LuxABCDE) was grown overnight under the control of the constitutive promoter porBp in GCB agar media, and a cell-suspension corresponding to an OD600=0.01 was subsequently prepared. In parallel, fresh stock DMSO solutions of the compounds were prepared (100×, with final concentrations being indicated in the different figures) and 1.8 μL of the corresponding solutions were added per well of 96-well plates. In each well, 178.2 μL of bacterial suspension were subsequently added. Bacteria were allowed to grow during 16 h at 37° C. with 5% CO2. The emitted light was measured using a 96-well plate luminometer (PerkinElmer Wallac 1420 Victor^3) and results are expressed in relative light unit (RLU). All these assays were performed at least in triplicates.
To screen molecules for their antibacterial activity, a luminescent system was used, as previously described for other bacteria. A clinical isolate of N. meninigitidis (LNP24198) expressing luciferase (LuxABCDE) under the control of the constitutive promoter porBp was used, as similarly described, located in the intergenic region next to NMB1732. More than 2400 compounds from different origins were screened to identify candidates with the ability to inhibit the growth of N. meningitidis after 16 h at 37° C. […] It is noteworthy that stock solutions for all tested compounds were prepared in DMSO and that the final DMSO concentration of the tested solutions was kept at 1%, a concentration which has proven not to affect the growth of N. meningitidis (FIG. 1A). […] An investigation of the effect of the BPh4^− moiety was then pursued.
To exclude any salt-specific effect, the effect of several BPh4^− and BF4^− salts on the growth of N. meningitidis luminescent strain was tested. The growth of N. meningitidis was measured after a 16 h-exposure to different concentrations of various BPh4^− and BF4^− salts. From this assay, the MIC (minimum inhibitory concentration, the lowest concentration that prevents visible bacterial growth, <800 RLU) was calculated. All BPh4 salts tested (sodium, ammonium and potassium) were all highly toxic for N. meningitidis.
Several borate compounds were prepared and their ability to inhibit N. meningitidis growth was assessed using the luminescent system described at Example 2.

[3] = test system: N. gonorrhoeae (LNP16626); assay: Bacterial survival assay (3 h), CFU counts; assay type: cell-based, Neisseria gonorrhoeae
Method: as §1, §2, §3, §4

N. lactamica = assay: Bacterial survival assay (3 h), CFU counts; assay type: cell-based, Neisseria lactamica
Method: as §1, §2, §5

[4] = test system: N. meningitidis (strain LNP 24198, luminescent); assay: Mice infection with luminescent N. meningitidis; assay type: in vivo, Balb/c mice; conditions: IV or IP administration 2 h after infection, 24 h and 48 h post-infection, relative to vehicle (DMSO)
Method: as §6, §7

[5] = 50 μM, 3 h, compared with N. meningitidis and N. gonorrhoeae

## [Na+].c1ccc([B-](c2ccccc2)(c2ccccc2)c2ccccc2)cc1 [Compound 1, Sodium tetraphenylborate]
N. meningitidis; 50 μM, 3 h, CFU counts vs DMSO 1% control
  survival of N. meningitidis: the detection of any live bacteria was not possible
N. meningitidis; N. meningitidis, 3 h exposure
  MBC (minimum bactericidal concentration that kill >99.999%): 18 µM
N. sicca
  survival of N. sicca: less sensitive
[1]
  sign of toxicity in mice: No apparent sign of toxicity
Staphylococcus aureus
  survival of Staphylococcus aureus: significantly more resistant
Moraxella catarrhalis
  survival of Moraxella catarrhalis: significantly more resistant
Yersinia enterocolitica
  survival of Yersinia enterocolitica: significantly more resistant
Citrobacter rodentium
  survival of Citrobacter rodentium: significantly more resistant
M. smegmatis
  survival of M. smegmatis: significantly more resistant
N. elongata; [5]
  survival of N. elongata: less sensitive
N. elongata; N. elongata, 3 h exposure
  MBC (minimum bactericidal concentration that kill >99.999%): higher than 200 μM
[2]; 100 μM, 16 h at 37° C., 1% DMSO
  inhibition of the growth of N. meningitidis (library screening): active
[2]; Neisseria meningitidis, 16 h
  MIC: 15 µM
[3]; 50 μM, 3 h, CFU counts
  survival of N. gonorrhoeae: no viable cells were detected
[3]; N. gonorrhoeae, 3 h exposure
  MBC (minimum bactericidal concentration that kill >99.999%): 7.5 µM
N. lactamica; [5]
  survival of N. lactamica: not as sensitive
N. lactamica; N. lactamica, 3 h exposure
  MBC (minimum bactericidal concentration that kill >99.999%): higher than 200 μM
[4]
  N. meningitidis bacterial load (luminescence): significantly reduces
